Results published in ChEMBL document CHEMBL1157539, “Thousands of chemical starting points for antimalarial lead identification” (Nature, 2010).

Test system: Plasmodium falciparum
Test: GSK_TCMDC: Inhibition of Plasmodium falciparum 3D7 in whole erythrocytes, using parasite LDH activity as an index of growth.
Assay type: functional, organism-based
Conditions: Plasmodium falciparum, 3D7

Row | SMILES | XC50 [µM]
1 | CC(C)CNC(=O)CN1C(=O)C(c2ccccc2)(c2ccccc2)N=C1N | 0.815
2 | COc1ccc2nccc(CCC3(O)CCC(NCc4cc5c(cc4F)SCC(=O)N5)CC3)c2c1 (stereo not given) | 0.675
3 | c1ccc(CCNc2ccnc(Nc3ccc4cn[nH]c4c3)n2)cc1 | 0.467
4 | CC(C)(C)c1nn(-c2ccc(Cl)cc2)c2[nH]c(=O)c(CNCc3cccs3)cc12 | 0.759
5 | O=C(Nc1cccc(-c2cccc(-c3nc4ccccc4[nH]3)c2)c1)Nc1ccc(F)c(F)c1F | 0.0551
6 | CCN(CC)CCN(Cc1ccc(-c2ccc(Cl)s2)cc1)C(=O)Cn1c(CCc2cccc(F)c2F)nc(=O)c2ccccc21 | 1.14
7 | Cc1cccc2nc(-c3cccc(-c4cccc(NC(=O)COc5ccccc5C(N)=O)c4)c3)[nH]c12 | 0.161
8 | O=[N+]([O-])c1ccc(C=NNc2nc(Nc3ccccc3)nc(Nc3ccccc3)n2)o1 | 0.837
9 | CNC(=O)c1cnc(Nc2ccc(N3CCN(C)CC3)cc2)nc1Nc1ccccc1OC | 0.928
10 | COc1ccc2c(=NN=Cc3ccncc3)cc(C)[nH]c2c1 | 0.814
11 | N#Cc1ccc(CN2CCCN(Cc3cccc(NC(=O)c4ccc(-c5ccccc5)cc4)c3)CC2)cc1 | 1.02
12 | CC(C)c1ccc(NC(=O)Nc2ccc(Cn3ncc(N4CCCNCC4)c(Cl)c3=O)cc2)cc1 | 1.05
13 | O=C(Nc1ccccc1)N(Cc1ccccc1-c1cccc(CNCc2ccc3c(c2)OCO3)c1)C1CCN(Cc2ccccc2)CC1 | 0.108
14 | C[C@H]1CN(Cc2cccc(-c3cc(CNC(=O)c4cccc(CN5CCN(CCOc6ccccc6)CC5)c4)ccc3F)c2)CCN1 | 1.11
15 | CN(C)S(=O)(=O)c1ccc(N2C(=O)C3C(C2=O)C2(c4ccccc4)C(=O)C3(c3ccccc3)C(c3ccccc3)=C2c2ccccc2)cc1 (stereo not given) | 0.951
16 | COc1cccc(NC(=O)Nc2c(-c3cccc(C(F)(F)F)c3)c(C(F)(F)F)nn2C)c1 | 0.911
17 | Cc1cc(Nc2ccc(C)c(Cl)c2)n2nc(C(F)(F)F)nc2n1 | 0.0158
18 | COc1ccccc1-c1cccc(-c2cccc(NC(=O)c3ccc([N+](=O)[O-])o3)c2)n1 | 0.603
19 | Cc1cc(N2CCC(NS(=O)(=O)c3ccc(F)cc3)CC2)nc(Nc2cccc(C#N)c2)n1 | 0.651
20 | O=C(Cc1cccc(Cl)c1)Nc1ccc(N2CCC(NCc3ccc4ncccc4c3)CC2)cc1 | 1.23
21 | COc1ccc2ccc(OC)c(CNCCCCCCNCc3c(OC)ccc4ccc(OC)cc34)c2c1 | 0.699
22 | CCCCCN1CCC(CNS(=O)(=O)c2ccc(C(=O)Nc3cccc(C(F)(F)F)c3)cc2)CC1 | 0.747
23 | COc1ccc(NC(=O)/C=C/c2ccc(Cl)c(C(F)(F)F)c2)cc1OCCN(C(C)C)C(C)C | 0.626
24 | Fc1cc(Cl)ccc1Nc1ccnc2cc(-c3ccc(CN4CCOCC4)o3)ccc12 | 0.639

Row | SMILES | XC50 [µM]
25 | CCCNC(=O)Nc1cc2cc(-c3cccc(CN4CCCCC4)c3)ccc2n2c(C)nnc12 | 1.11
26 | CCN(CC)/C(=N/C(=N)Nc1ccc(C)cc1)NCCCCCCN/C(=N\C(=N)Nc1ccc(C)cc1)N(CC)CC | 0.539
27 | CN1CCN(Cc2ccc(-c3ccc4c(Nc5ccc(Oc6ccccn6)cc5)ccnc4c3)o2)CC1 | 0.145
28 | NC(=O)c1cccc(Nc2nccc(Nc3ccc(Oc4cccc5ccccc45)cc3)n2)c1 | 1.15
29 | Brc1ccc(Nc2ccnc3cc(-c4nccs4)ccc23)cc1Oc1ccnc2cc(-c3nccs3)ccc12 | 1.06
30 | Oc1ccc(CCNc2nc(NCc3ccc4cc(Cl)ccc4c3)nc(N3CCNCC3)n2)cc1 | 1.02
31 | Cc1nnc2c(NC(=O)NC3CCCC3)cc3cc(-c4ccc(CN5CCCCC5)cc4)ccc3n12 | 0.948
32 | O=C(c1cncc(-c2ccccc2)c1)N(Cc1cncn1Cc1ccccc1F)CC1CC1 | 0.804
33 | Oc1ccc(Cl)cc1CN1CCC(CCOC(c2ccccc2)c2ccccc2)CC1 | 0.649
34 | CCN(CCCN1CCCCC1)c1cc(C)nc(Nc2cc(Cl)cc(Cl)c2)n1 | 0.286
35 | COc1cc(NC(=O)/C=C/c2ccccc2OC(F)(F)F)cc(OCCN2CCCCC2)c1 | 0.19
36 | Nc1c2c(nc3ccc(Oc4ccc(Br)cc4Br)cc13)CCCC2 | 0.864
37 | CCN1C(c2ccc(Cl)cc2)C(CNCc2ccccc2O)CC1(C)CO (stereo not given) | 0.311
38 | Nc1ncc(-c2ccc3ncccc3c2)c(N)n1 | 0.918
39 | O=C(CCc1cccnc1)Nc1cccc(-c2ccc(-c3nc4cc(C(F)(F)F)ccc4[nH]3)cc2)c1 | 0.867
40 | O=C(NCCN1CCCCC1)c1ccc(CNC(=O)c2ccc(O)c(-c3ccc(Cl)c(Cl)c3)c2)cc1 | 0.9
41 | Cc1ccc(-n2c(=O)c3c(n4c(SC(C)C)nnc24)-c2ccccc2CC32CCCCC2)cc1 | 0.946
42 | NC1CCCN(Cc2cccc(-c3cccc(-c4nc5ccccc5[nH]4)c3)c2)C1 (stereo not given) | 0.637
43 | O=C(/C=C/c1ccc(Cl)c(Cl)c1)N1CCC(CN2CCC(c3c(Br)[nH]c4ccccc34)CC2)CC1 | 0.289
44 | O=C(N[C@@H](Cc1ccccc1)C(=O)NCCN1CCCC1)c1ccc(O)c(-c2ccc(Cl)c(Cl)c2)c1 | 0.8
45 | Cc1cccc2nc(-c3cccc(-c4cccc(NC(=O)c5cccnc5Cl)c4)c3)[nH]c12 | 0.707
46 | O=C(Nc1ccc(-c2cccc(-c3nc4ccccc4[nH]3)c2)cc1)Nc1ccsc1 | 0.246
47 | COc1ccc(-c2cccc(CNCc3ccc(F)cc3)c2)cc1S(=O)(=O)NCCN1CCCC1 | 1.85
48 | CCN(CC)c1ccc(C=CC(=O)NCCN2CCC(N(C)C3CCCCC3C)CC2)cc1 (stereo not given) | 0.965

Row | SMILES | XC50 [µM]
49 | C=C(C)CSc1nc2c(c(=O)n1CCc1ccccc1)C1(CCCC1)Cc1ccccc1-2 | 0.607
50 | CCCCCCCN1CCC(CC(=O)Nc2ccnc3ccc(OC)cc23)CC1 | 0.722
51 | COc1ccc(C2CCN(CCCCNC(=O)c3ccc(NC(=O)c4ccc(Cl)cc4)cc3)CC2)cc1Cl | 0.843
52 | CCNC[C@H]1CCCN1CCOc1ccc(-n2cnc3cc(-c4ccc(Cl)cc4)sc3c2=O)cc1OC | 0.808
53 | COc1ccc2c(c1)Sc1ccccc1C(N1CCN(CCO)CC1)C2 (stereo not given) | 1.39
54 | CCc1cccc2c(C#N)cn(CC(=O)NCCc3ccccc3)c12 | 0.887
55 | Cc1ccc(C)c2sc(N3CCN(C(=O)c4ccc([N+](=O)[O-])o4)CC3)nc12 | 0.819
56 | Cc1cc(CN2CCC(N3CC(c4ccccc4)(c4ccccc4)OC3=O)C2)ccc1O (stereo not given) | 0.776
57 | COc1ccc(CNC2CCN(C)CC2)cc1-c1ccc(S(=O)(=O)NCCc2ccccn2)c(F)c1 | 0.819
58 | Nc1nc(N)c2cc(S(=O)(=O)c3ccc4ccccc4c3)ccc2n1 | 0.0368
59 | Cc1c(Cc2ccccc2Cl)cnc2nc(N)nc(N)c12 | 0.00742
60 | COCCCn1c(=N)c(C(=O)NCCc2ccc(OC)cc2)cc2c(=O)n3cccc(C)c3nc21 | 1.03
61 | OC1CCCN(Cc2cccc(-c3ccc(-c4nc5cc(C(F)(F)F)ccc5[nH]4)cc3)c2)C1 (stereo not given) | 0.69
62 | CCC(=O)Oc1ccc(NC(=O)c2cccc(OC)c2)cc1 | 0.771
63 | COC(=O)c1cccc(CNCc2ccc(-c3ccc(-c4nc5cc(C(F)(F)F)ccc5[nH]4)cc3)cc2)c1 | 0.298
64 | COC(=O)Nc1cc(C(F)(F)F)ccc1N1CCCC(NS(=O)(=O)c2ccc(C(C)(C)C)cc2)C1 (stereo not given) | 0.38
65 | Cc1ccc(Nc2nc(N/N=C/c3ccccc3[N+](=O)[O-])nc(Nc3ccc([N+](=O)[O-])cc3)n2)cc1C | 0.692
66 | CC(CN(C)C)C(=O)Nc1ccc(-c2ccc(-c3nc4ccccc4[nH]3)s2)cc1 (stereo not given) | 0.717
67 | CCCCCCCCOc1c(OCC)cc(Cc2cnc(N)nc2N)cc1OCC | 1.53
68 | CCN(CC)CCN(Cc1ccc(-c2ccc(C(F)(F)F)cc2)cc1)C(=O)Cn1c(SCc2ccc(F)cc2)nc(=O)c2ccccc21 | 0.773
69 | CCCCCCCNCc1c(O)ccc2c(CNCCCCCCC)c(O)ccc12 | 0.15
70 | CC1(C)NC(N)=NC(=N)N1OCCCCOc1ccccc1 | 0.0032
71 | OC(c1nnc(S)n1-c1ccccc1)C(O)c1nnc(S)n1-c1ccccc1 (stereo not given) | 0.741
72 | COCCNCc1ncsc1-c1ccc2c(Nc3ccc(Oc4ccccc4)cc3)ccnc2c1 | 0.905

Row | SMILES | XC50 [µM]
73 | Cc1ccc(CC(C)NCC(O)c2cccc(Cl)c2)cc1F (stereo not given) | 0.742
74 | CCCC1N=C(N)N=C(N)N1c1cccc(C(F)(F)F)c1 (stereo not given) | 0.594
75 | Cn1cncc1C(=O)Nc1ccc(-c2ccc(-c3nc4cc(C(F)(F)F)ccc4[nH]3)cc2)cc1 | 0.56
76 | Nc1nccc2ccc(-c3ccc(NC(=O)Nc4cc(C(F)(F)F)ccc4F)cc3)cc12 | 0.0863
77 | N#Cc1c(-c2ccccc2)cn2c1[nH]c(=O)c1ccccc12 | 0.109
78 | Cc1[nH]c2ccccc2c1CC1CCN(CC2CCN(C(=O)/C=C/c3ccc(Cl)c(Cl)c3)CC2)CC1 | 0.95
79 | O=C(NC1CC1)c1cnc(N2CCC(OCc3ccccc3)CC2)c(Cl)c1 | 1.4
80 | CCCCCSc1cc(O)c(C(CNC)C(C)C)cc1OC (stereo not given) | 0.163
81 | CN1CCC(NCc2ccc(-c3ccc(S(=O)(=O)NCc4ccccc4)s3)cc2)CC1 | 0.765
82 | CCn1c(-c2nonc2N)nc2c(-c3cccc(NC(=O)Nc4cccc(OC)c4)c3)ncc(OCCCN)c21 | 0.769
83 | CCc1nc2c(cnn2CC)c(NC2CCOCC2)c1CNC(=O)c1ccoc1C | 0.886
84 | COc1cccc2cc(C(=O)N[C@@H](CC(C)C)C(=O)N[C@H](/C=N/NC(=O)Cc3cccnc3)CCc3ccccc3)oc12 | 0.951
85 | CCN(CC)CCN(Cc1ccc(-c2ccc(C(F)(F)F)cc2)cc1)C(=O)Cn1c(CCc2cc(F)cc(F)c2F)nc(=O)c2ccccc21 | 0.756
86 | Cc1nc(C)c(-c2ccc(Oc3ccc(Cl)c(Cl)c3)cc2)c(O)c1Cl | 0.106
87 | Cc1cc(N)c2cc(NC(=O)c3cc(C(F)(F)F)cc(C(F)(F)F)c3)ccc2n1 | 0.0868
88 | O=C(Nc1cccc(-c2cccc(-c3nc4cc(F)ccc4[nH]3)c2)c1)Nc1ccc(F)c(F)c1F | 0.0891
89 | Cc1cc(N)cc2nc(-c3ccc(N)cc3)[nH]c12 | 0.892
90 | Cc1cccc2nc(-c3ccc(-c4ccc(CN5CCN(CCO)CC5)cc4)cc3)[nH]c12 | 0.599
91 | O=C(NCC1CCC(C(=O)NC2CCCc3ccccc32)CC1)c1ccc(O)c(-c2ccc(Cl)c(Cl)c2)c1 (stereo not given) | 1.02
92 | CCN1CCC(N(Cc2ccc(-c3ccc(C(F)(F)F)cc3)cc2)C(=O)Cn2c(CCc3cccc(F)c3F)cc(=O)c3cn(C)nc32)CC1 | 0.24
93 | Cc1cccc(CN2CCCN(Cc3ccc(C(=O)Nc4ccc(Cl)cc4)cc3)CC2)c1 | 0.596
94 | COc1ccc(Cl)cc1S(=O)(=O)Nc1cccc(CCN2CCC(N3CCCCC3)CC2)c1 | 0.704
95 | N#Cc1ccc2c(c1)CCN(CCC1CCC(NC(=O)c3cc4ccc(Br)cc4[nH]3)CC1)C2 (stereo not given) | 0.756
